Data reported in US8609858B2, “Spiro derivatives of parthenin as novel anticancer agents” (Council of Scientific & Industrial Research, priority 2008, dated 2013).

Tests used:
[1] = tested on: human cancer cell lines; test: In vitro cytotoxicity screening, human cancer cell lines in general; assay type: cell-based; conditions: all the cell lines used, read-out: growth inhibition of human cancer cell lines
Experimental: (§1) Cells at sub confluent stage were harvested from the flask by treatment with trypsin (0.5% in PBS containing 0.02% EDTA) for determination of cytotoxicity. Cells with viability of more than 98%, as determined by trypan blue, were used for assay. The cell suspensions of required cell density were prepared in complete growth medium with gentamycin (50 μg/ml) for determination of cytotoxicity. The cells (100 μl/well) were inoculated in 96 well tissue culture plates. The cells were allowed to grow for 24 hrs temperature of 37° C. and in a humidified atmosphere of 5% CO2 in air. Stock solution of (20 mM) of test material was prepared in DMSO. The stock solution was serially diluted with complete growth medium containing 50 μg/ml of gentamycin to obtain […] working test solutions of 1., 2, 5, 10, 50 and 100 μM. In vitro cytotoxicity (IC50 value) against human cancer cell lines was determined using sulphodamine B dye.^5,6 The results are summarized in table 4.
(§2) The human Cancer Cell lines were obtained either from National Center for Cell Science, Pune, India or National Cancer Institute, Frederick, U.S.A. The human cancer cell colon: SW-620, prostrate, PC-3, DU-145 and acute lymphoblastic leukemia (MOLT-4) were grown and maintained in RPMI-1640 medium, pH 7.4, HEP-2. […]

[2] = tested on: Ehrlich Ascites Carcinoma (EAC); test: Anti tumor activity on Ehrlich Ascites Carcinoma (EAC) bearing mice; assay type: in vivo; conditions: for % Tumor growth inhibition / Ascitic fluid volume (ml) Mean ± SE / Tumor cells in ascitic fluid (×10^7) Mean ± SE: nine days, day 12
Source text: Non-inbred swiss albino mice from an in-house colony were used in the present study. The breeding and experimental animals were housed in standard size polycarbonate cages providing internationally recommended space for each animal. Animals were fed balanced mice feed supplied by MIs Ashirwad Industries, Chandigarh (India) and autoclaved water was available ad libitum. Animals were cared as per the guide for the care and use of laboratory animals (1996), ILAR, Washington D.C. They were housed in controlled conditions of temperature (23±2° C.), humidity (50-60%) and 12:12 hrs of light: dark cycle. The study and the number of animals used were approved by the institutional animal ethics committee, IIIM, Jammu, India. The study was conducted as per the protocols of National Cancer Institute (NCl), USA (Geran et al., 1972).
Ehrlich Ascites Carcinoma (EAC) was propagated by transplanting 1×10^7 cells from an animal bearing 8-10 days old Ehrlich Ascites Carcinoma, into the peritoneal cavity of non-inbreed swiss mice. For testing, mice of the same sex weighing 20 ±3 g bearing ascites tumor were selected. 1×10^7 cells obtained from an animal bearing 8-10 days old ascites tumor were injected into peritoneal cavity of all animals used for testing (0 Day). On next day animals were randomized and divided into test groups (7 animals in each test group) and one tumor control group (10 animals). Test groups were treated with different doses of Parthenin (10 mg/kg, 25 mg/kg and 50 mg/kg) and its derivative Compound-17 (10 mg/kg, 25 mg/kg and 50 mg/kg, 100 mg/kg and 200 mg/kg) suspension in 1% gum acacia in their respective group intraperitonealy for nine consecutive days. Another test group was administered 5 FU @ 20 mg/kg i.p and served as positive control. The tumor control group was similarly administered normal saline (0.2 ml i.p). The percent tumor growth inhibition were measured on day 12 with respect to volume of ascitic fluid and the number of tumor cells in the ascitic fluid of peritoneal cavity (Geran et al., 1972; Singh et al., 2007).
The percent tumor growth inhibition was calculated as follow. % growth inhibition=100×(Average no. of cells in control group−Average no. of cells in test group)/Average no. of cells in control group Results: […]

[3] = tested on: PC-3; test: In vitro cytotoxicity screening (sulphodamine B dye), PC-3; assay type: cell-based; conditions: Homo sapiens; PC-3 prostate cancer cell line
Experimental: as §1, with “Cells with viability of more than 98%, as determined by trypan blue, were used for assay.” left out, “μM.” for “μM. In vitro cytotoxicity (IC50 value) against human cancer cell lines was determined using sulphodamine B dye.^5,6 The results are summarized in table 4.”
The media were supplemented with FCS (10%), penicillin (100 Units/ml), streptomycin (100 μg/ml) and glutamine (2 mM) and cells were grown in CO2 incubator (Hera cell, Heraeus, USA) at 37° C. with 90% humidity and 5% CO2.

[4] = tested on: Hep-2; test: In vitro cytotoxicity screening (sulphodamine B dye), Hep-2; assay type: cell-based; conditions: Homo sapiens, read-out: cell growth inhibition
Experimental: as §1, §2

SMILES: C[C@H]1CC[C@@H]2[C@@H](OC(=O)C23CC(c2c4ccccc4cc4ccccc24)=NO3)[C@]2(C)C(=O)C=C[C@@]12O (stereo partly shown) [Compound -17]
- inhibition at 5 µM [1]: ≥ 70%
- % Tumor growth inhibition ([2]; 10 mg/kg i.p.): 7.74%
- Ascitic fluid volume (ml) Mean ± SE ([2]; 10 mg/kg i.p.): 4.07 ± 0.35 mL
- Tumor cells in ascitic fluid (×10^7) Mean ± SE ([2]; 10 mg/kg i.p.): 78.42 ± 2.90 ×10^7
- % Tumor growth inhibition ([2]; 25 mg/kg i.p.): 19.16%
- Ascitic fluid volume (ml) Mean ± SE ([2]; 25 mg/kg i.p.): 3.62 ± 0.32 mL
- Tumor cells in ascitic fluid (×10^7) Mean ± SE ([2]; 25 mg/kg i.p.): 68.71 ± 3.16 ×10^7
- % Tumor growth inhibition ([2]; 50 mg/kg i.p.): 27.23%
- Ascitic fluid volume (ml) Mean ± SE ([2]; 50 mg/kg i.p.): 2.85 ± 0.37 mL
- Tumor cells in ascitic fluid (×10^7) Mean ± SE ([2]; 50 mg/kg i.p.): 61.85 ± 4.20 ×10^7
- % Tumor growth inhibition ([2]; 100 mg/kg i.p.): 60.50%
- Ascitic fluid volume (ml) Mean ± SE ([2]; 100 mg/kg i.p.): 2.07 ± 0.33 mL
- Tumor cells in ascitic fluid (×10^7) Mean ± SE ([2]; 100 mg/kg i.p.): 33.57 ± 2.60 ×10^7
- mortality of test animals ([2]; 200 mg/kg i.p., EAC bearing mice): All animals died by 3rd day
- IC50 [3]: 4.9 µM
- inhibition at 5 µM [4]: 71%
